# Key:
# [1] = system: RCC4/VHL; assay: XTT IC50 assay, selectivity RCC4 versus RCC4 with VHL-reintroduced; format: cell-based, human; conditions: selectivity ratio of XTT IC50 values, RCC4 vs RCC4/VHL
# Summary of the method: (§1)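 RCC4 parental and VHL-reintroduced RCC4/VHL cells (DMEM, 10% FCS) treated with serially diluted drug for four days. Viability by XTT (0.3 mg/mL) with N-methyl dibenzopyrazine methyl sulfate, 1–2 h at 37 °C, absorbance 450 nm; IC50 by linear interpolation.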
# [2] = system: RCC4; assay: XTT IC50 / viability assay, RCC4 cells; format: cell-based, human; conditions: Homo sapiens, RCC4, 96 h; XTT assay, four days
# Summary of the method: as §1
# [3] = Normal tissue toxicity (histology); format: in vivo; conditions: treated mice; kidney, spleen, liver, heart, salivary gland, brain
# Experimental: FIG. 5A-E In vivo monitoring and efficacy of compound 47. […] 786-O, a renal clear cell carcinoma with a naturally occurring VHL mutation, were implanted subcutaneously into the flanks of CD-1 nude mice. Representative axial cross section of a mouse prior to treatment (left) and following three daily i.p. injections with compound 85 (11.6 mg/kg)(right), overlaid over CT scan. (B) Quantitatively, compound 85 inhibits FDG-PET in mouse xenografts. Quantification of FDG-PET inhibition by compound 85 as determined by the 90th percentile ROI for percent injected dose per gram (% ID/g) (*p<0.01). (C) Compound 85 is not toxic to normal tissues. (a, b) Kidney of vehicle- and compound 85-treated animals. (c, d) Spleen of vehicle- and compound 85-treated animals. (e, f) Liver of vehicle- and compound 85-treated animals. (g, h) Heart of vehicle- and compound 85-treated animals. (i, j) Salivary gland of vehicle- and compound 85-treated animals. (k, l) Brain of vehicle- and compound 85-treated animals. Scale bar represents 100 microns. (D) Compound 85 delays tumor growth. 786-O tumor-bearing mice were treated daily with vehicle or compound 85 (11.6 mg/kg for the first 3 days, followed by 7.8 mg/kg for the next week)(*p<0.005). […]
# In Vivo Studies and Immunohistochemistry. […] Tumors were measured with calipers. Volume was calculated by the following formula: width^2×0.5 length. […]
# [4] = system: 786-O; assay: FDG-PET imaging of 786-O xenografts; format: in vivo, mice
# Experimental: FIG. 5A-E In vivo monitoring and efficacy of compound 47. […] 786-O, a renal clear cell carcinoma with a naturally occurring VHL mutation, were implanted subcutaneously into the flanks of CD-1 nude mice. Representative axial cross section of a mouse prior to treatment (left) and following three daily i.p. injections with compound 85 (11.6 mg/kg)(right), overlaid over CT scan. (B) Quantitatively, compound 85 inhibits FDG-PET in mouse xenografts. Quantification of FDG-PET inhibition by compound 85 as determined by the 90th percentile ROI for percent injected dose per gram (% ID/g) (*p<0.01). (C) Compound 85 is not toxic to normal tissues. (a, b) Kidney of vehicle- and compound 85-treated animals. (c, d) Spleen of vehicle- and compound 85-treated animals. (e, f) Liver of vehicle- and compound 85-treated animals. (g, h) Heart of vehicle- and compound 85-treated animals. (i, j) Salivary gland of vehicle- and compound 85-treated animals. (k, l) Brain of vehicle- and compound 85-treated animals. Scale bar represents 100 microns. (D) Compound 85 delays tumor growth. 786-O tumor-bearing mice were treated daily with vehicle or compound 85 (11.6 mg/kg for the first 3 days, followed by 7.8 mg/kg for the next week)(*p<0.005). (E) Compound 85 delays tumor growth in cells that have lost VHL. ACHN cells expressing a short hairpin RNA to VHL were implanted subcutaneously into the flanks of immunocompromised mice. Once tumors reached an average of >20 mm^3, mice were treated daily with compound 85 or vehicle (*p<0.05). All error bars represent the standard error of the mean.
# In Vivo Studies and Immunohistochemistry. All experiments were approved by Stanford's Administrative Panel on Laboratory Animal Care (APLAC) and in accordance with both institutional and national guidelines. Five million cells were implanted subcutaneously into the flanks of nude mice (4-6 weeks old)(Charles River Laboratories). Tumors were measured with calipers. Volume was calculated by the following formula: width^2×0.5 length. […]
# [5] = system: ACHN shVHL; assay: Xenograft tumor growth, ACHN expressing shRNA to VHL; format: in vivo, mice; conditions: daily systemic treatment ten to fourteen days, vs vehicle
# Experimental: (§2) Five million cells were injected into the flanks of nu/nu mice (4-6 weeks old males) and allowed to grow to approximately 50 mm^3. The mice were injected daily by intra-peritoneal to deliver either vehicle or drug. Tumors were measured every other day and tumor volume was calculated as 0.5 length by width squared.
# (§3) In Vivo Studies and Immunohistochemistry. All experiments were approved by Stanford's Administrative Panel on Laboratory Animal Care (APLAC) and in accordance with both institutional and national guidelines. Five million cells were implanted subcutaneously into the flanks of nude mice (4-6 weeks old)(Charles River Laboratories). Tumors were measured with calipers. Volume was calculated by the following formula: width^2×0.5 length. Once tumors reached an average size of >20 mm^3, mice were randomized into vehicle (DMSO diluted in 16% cremaphor EL/PBS) or treated groups. Mice were treated with compound 85 (11.6 mg/kg for the first 3 days, followed by 7.8 mg/kg for the 7-9 days). Five-micron sections were cut for immunohistochemistry. Sections were counterstained with hematoxylin and eosin. For 2-[^18F]-fluoro-2-deoxy-glucose-positron emission tomography imaging, mice bearing tumors were fasted overnight. The next day, the mice were anesthetized with 2% isoflurane and injected intraperitoneally with 250 μCi of FDG. […]
# [6] = Solubility (comparison in words); format: physicochemical
# [7] = system: ACHN; assay: Xenograft tumor growth, ACHN with wild-type VHL; format: in vivo, mice; conditions: daily treatment vs vehicle control
# Experimental: as §2, §3
# [8] = system: 786-O; assay: Xenograft tumor growth, 786-O; format: in vivo, mice; conditions: daily, 11.6 mg/kg for 3 days then 7.8 mg/kg, ten to fourteen days, vs vehicle
# Experimental: as §2, §3
smiles,measurement,setting,value
"CN1CCN(c2ccc(S(=O)(=O)NCc3ccc(C(=O)Nc4cccnc4)cc3)cc2)CC1 [Example 76, 4-((4-(4-Methylpiperazin-1-yl)phenylsulfonamido)methyl)-N-(pyridin-3-yl)benzamide]",Ratio (RCC4:RCC/VHL),[1],c (“c” reflects a ratio of >100)
same,IC50,[2],< 1000 nM
same,normal tissue toxicity,[3],no normal tissue toxicity
same,glucose uptake within tumors by FDG-PET,"[4]; 786-O xenografts in CD-1 nude mice, three daily i.p. doses (11.6 mg/kg)",striking decrease in glucose uptake within the tumors
same,"tumor FDG uptake, quantified (% ID/g)","[4]; 786-O xenografts, FIG. 5B",consistently decreased FDG uptake
same,"tumor growth, ACHN shVHL xenografts",[5],markedly delayed tumor growth
same,solubility relative to compound 47,[6],more soluble
same,"tumor growth, ACHN wild-type VHL xenografts",[7],grew at similar rates
same,"tumor growth, 786-O xenografts",[8],markedly delayed tumor growth
